Test results as given in patent publication US20260008801A1, “BIO-BASED SURFACTANTS DERIVED FROM CARBOHYDRATES” (COÖPERATIE KONINKLIJKE COSUN U.A., priority 2022, published 2026).
Values belong to the compound of their own block, whether it stands above or below them.

What was measured:
[1] = Solubility in water (excess of compound in 4 ml demi water); type: physicochemical; settings: for Solubility: Table E5.2, water
Method: Solubility is preferably solubility in aqueous solution, more preferably solubility in water, most preferably solubility in demineralised water. A skilled person knows how to assess such solubility.
Solubility in water was determined by preparing mixtures of an excess of compound dispersed in 4 ml demi water using a vortex at maximum speed for 1 min. […] 1 ml of the mixture was concentrated in vacuo to yield a solid. The mass of the solid was determined in mg to calculate the solubility in percentage by dividing by ten.

[2] = Solubility in media other than water (methanol, ethyl acetate, oils, 3:1 EtOH/H2O); type: physicochemical
[3] = Foaming abilities, 1% compound solutions shaken by hand; type: physicochemical; parameters: key to FOAM: −: no foam formation; +: low foam formation; ++: moderate foam formation; +++: strong foam formation
Method: Foaming abilities were evaluated at room temperature by shaking 1% compound solutions (2 ml) of pH 3, 7, and 12 by hand for 10 s. The pH of each solution was assessed with a pH meter at room temperature. […] The foam heights at the initial time were compared to one another after which the foaming abilities were classified according to no foam formation (−), low foam formation (+), moderate foam formation (++), and strong foam formation (+++).

[4] = Foaming power and stability, Ultra-Turrax, 0.4% aq. surfactant; type: physicochemical; settings: for Foamability (mL) after (min) 1 / Foamability (mL) after (min) 5 / Foamability (mL) after (min) 10: Table E5.2; for Foamability (mL) after (min) 1: foam volume after 1 min; for Foamability (mL) after (min) 5: foam volume after 5 min; for Foamability (mL) after (min) 10: foam volume after 10 min
Method: Foaming power was also tested at room temperature with 5 mL of 0.4% aq. surfactant (20 mg) solution in a 50 mL measuring cylinder. After performing the Ultra-Turrax (a registered trademark for a high-performance dispersing instrument) for 20 seconds (8000 rpm), the initial height of the foam was measured for foam height. (volume in mL). Every time step of, 1, 3, 5, 10, 30, 60 minutes was noted. In addition, after 24 hours the stability was checked. Particularly, foaming power and stability of the surfactants were performed using an IKA Ultra-Turrax T25 with an 18 G dispersing element. At room temperature, an aqueous solution of 5 mL 0.4% surfactant in a 50 mL measuring cylinder (2.20 cm diameter) was mixed with the Ultra-Turrax for 20 seconds at 8000 rpm. The foam height (volume in mL) was denoted for 0, 1, 3, 5, 10, 30, 60 min and 24 hours. In addition, after 24 hours the stability was checked.

[5] = Surface tension measurements, Wilhelmy plate (surface tension, CMC); type: physicochemical
Method: Surface tension measurements were performed with a Biolin Scientific Sigma701 automatic tension meter equipped with a Wilhelmy plate made of platinum (±0.5 mN/m). […] The number of experimental points is related to the compound's/surfactant's solubility and available quantity. All compound/surfactant solutions were allowed to stand 12 h before being measured. The platinum plate was thoroughly cleaned with demi water and flame-dried before each measurement. The CMC of each compound/surfactant was determined at the minimum of a breakpoint of a conventional plot of surface tension versus compound/surfactant concentration. DCMC was obtained by acquiring the surface tension at the CMC. The pC20 value was determined by taking the minus log of the concentration compound/surfactant at a surface tension of 52 mN/m.

[6] = test system: Zein; assay: Zein solubilisation (skin irritation potential); settings: SDS set as 100; for zein score / skin irritation potential value: pH 7
Method: Zein solubilisation was measured to determine the irritation of the surfactants. Zein is a simple protein found in corn. It is a very simple mimic of skin protein, the more solubilised by your material the harsher the potential to irritate and dry the skin. This method is a quick screen and provides indicative data. The procedure is 1) Weight 2-2.5 ml Eppendorf's on a 4 dp balance. 2) Weight out as accurately as possible 70 mg of Zein. 3) Add to the Eppendorf and reweigh. 4) Make your surfactant dilutions. 5) Add 1 ml of the surfactant dilution to the Eppendorf. 6) Place this on a rotary mixer for 20 mins at 20 rpm at RT. 7) Remove and centrifuge for 4 mins at highest speed available on a micro centrifuge 8) Discard the supernatant making sure as much of it possible is removed. 9) Repeat with water, centrifuge and discard supernatant. 10) With the Eppendorf lid open, place at 50° C. overnight to dry (48 hours required). 11) Re-weigh the next day. 12) Calculate the amount of Zein solubilised. The obtained data allows comparison of surfactants and their harshness to skin. Decisions for in vivo testing can be based on good Zein results.
The skin irritation potential of the surfactants was investigated using zein solubilisation, which is a commonly known assay. Zein is a very simple mimic of skin protein. The more zein is solubilized by the surfactant the harsher the potential to irritate and dry the human skin. […] The surfactants were measured at different pH values, a pH of 4-5, 7 and at their original pH as is.

[7] = test system: activated sludge from a municipal wastewater treatment plant (WWTP); assay: Biodegradability, OECD 301A DOC Die-Away Test (adjusted); settings: inoculum with compound and sodium acetate
Method: Biodegradability of compounds was assessed. The compound is added to an inoculate of activated sludge from a municipal wastewater treatment plant (WWTP). The experiment relies on the basic principles of the 301A DOC Die-Away Test described in the OECD guidelines for readily biodegradable substances. A small adjustment was made where the measuring is not done in conical flasks but, instead, in serum vials closed with butylrubber stoppers. This allowed measurement of the evolution of CO2 and O2 over time. In general, the experiment involves the experimental incubation (inoculum and compound), along with a blank control (inoculum no compound), a positive control (inoculum and sodium acetate), and controls for abiotic degradation (compound in medium), adsorption (compound with sterilized inoculum), and toxicity (inoculum with compound and sodium acetate).
The fresh sludge was conditioned overnight by bubbling with air at room temperature. […]
Incubations were prepared containing approximately 70 mg/L surfactant and 3 ml sludge in a final volume of 30 ml mineral medium in a borosilicate serum vial crimp-sealed with a butyl rubber stopper. […] 1 ml samples were taken weekly for surfactant quantification and centrifuged 5 min at 20.000×g. […] CO2 was analyzed by measuring headspace gas on an Agilent 8890A/5977B GC-MS equipped with an Agilent 6 FT Porapak Q 80/10 column. […]

[8] = Table E3, N-alkylated compounds

solubility in water, in words [1]: well soluble | SOLUBILITY (H2O) [1, 8]: Soluble | solubility in methanol, in words [2]: well soluble | foaming behaviour / foam creation, in words [3]: good foaming behaviour | FOAM ([3]; Table E3): ++
Compound: CCCCCCCCN(C)C(=O)[C@H](O)[C@@H](O)[C@@H](O)[C@H](O)C(=O)O [Compound 20]

solubility in water, in words [1]: well soluble | SOLUBILITY (H2O) [1, 8]: Soluble | solubility in methanol, in words [2]: well soluble | foaming behaviour / foam creation, in words [3]: good foaming behaviour | FOAM ([3]; Table E3): ++
Compound: CCCCCCCCCCCCN(C)C(=O)[C@H](O)[C@@H](O)[C@@H](O)[C@H](O)C(=O)O [Compound 22]

SOLUBILITY (H2O) ([1]; Table E5): 14% | Solubility [1]: 14% | Solubility in 3:1 EtOH/H2O ([2]; 3:1 ethanol water ratio): (Poorly in 3:1 | FOAM ([3]; Table E5, pH not given): −
Compound: CCCCCCNC[C@H](O)[C@@H](O)[C@@H](O)[C@H](O)C(=O)O [Compound 37, N-hexyl-D-galacturonic acid amine, reference compound]

Solubility [1]: 28% | SOLUBILITY (H2O) ([1]; Table E7, commercially available surfactants): Yes | Solubility (%) ([1]; Table E8): 28% | Foamability (mL) after (min) 1 [4]: 4 mL | Foamability (mL) after (min) 5 [4]: 4 mL | Foamability (mL) after (min) 10 [4]: 3 mL | Foamability 1 min ([4]; Table E8, after 1 min): 4 mL | Foamability 5 min ([4]; Table E8, after 5 min): 4 mL | Foamability 30 min ([4]; Table E8, after 30 min): 3 mL | concentration at which the surface tension is reached [5]: 0.02% | CMC (%) ([5]; Table E5.2): 0.2% | Surface tension (nM/m) ([5]; Table E5.2): 33.8 mN/m | CMC (%) ([5]; Table E7): 0.2% | SURFACE TENSION ([5]; Table E7): 36.5 mN/m | CMC (%) ([5]; Table E8): 0.2% | Surface tension (nM/m) ([5]; Table E8): 33.8 mN/m | FOAM ([3]; Table E7): ++
Compound: sodium laureth sulfate [SLES, reference compound]
zein score / skin irritation potential value [6]: 49 | skin irritation potential value (zein) ([6]; pH11): > 49

More lines, now with the values behind:

Compound: CCCCCCN(C)C(=O)[C@H](O)[C@@H](O)[C@@H](O)CO [Compound 18, N-methyl-N-hexyl-L-arabinonamide]
solubility in water, in words [1]: well soluble | SOLUBILITY (H2O) [1, 8]: Soluble | solubility in methanol, in words [2]: well soluble | FOAM ([3]; Table E3): −

Compound: CCCCCCCCCCCCN(C)C(=O)[C@H](O)[C@@H](O)[C@@H](O)CO [Compound 19, N-methyl-N-dodecyl-L-arabinonamide]
solubility in water, in words [1]: well soluble | SOLUBILITY (H2O) [1, 8]: Soluble | solubility in ethyl acetate, in words ([2]; ethyl acetate): well soluble | solubility in methanol, in words [2]: well soluble | FOAM ([3]; Table E3): ++

Compound: CCCCCCCCN(C)C[C@H](O)[C@@H](O)[C@@H](O)[C@H](O)C(=O)O [Compound 31, N-methyl-N-octyl-D-galacturonic acid amine]
solubility in H2O [1]: 15% | SOLUBILITY (H2O) ([1]; Table E5): 15% | Solubility [1]: 15% | Foamability (mL) after (min) 1 [4]: 4.5 mL | Foamability (mL) after (min) 5 [4]: 4 mL | Foamability (mL) after (min) 10 [4]: 4 mL | CMC (%) ([5]; Table E5): 1.15% | SURFACE TENSION ([5]; Table E5, room temperature, pH 7): 32.067 mN/m | CMC (%) ([5]; Table E5.2): 1.15% | Surface tension (nM/m) ([5]; Table E5.2): 32.1 mN/m | SURFACE TENSION ([5]; running text b302): 31.5 mN/m | zein score / skin irritation potential value [6]: 1 | inhibition of breakdown of acetate (toxicity control) [7]: did not inhibit | FOAM ([3]; Table E5, pH > 7.3): ++
